Reference: patent publication US20110200535A1, “DAA-PYRIDINE AS PERIPHERAL BENZODIAZEPINE RECEPTOR LIGAND FOR DIAGNOSTIC IMAGING AND PHARMACEUTICAL TREATMENT” (BAYER SCHERING PHARMA AKTIENGESELLSCHAFT, priority 2008, published 2011)
Where “and” joins values, the source holds several entries; their conditions need not be identical. Equal values may be shown once.

What was measured:
PBR = PBR (Homo sapiens, UniProt P30536); assay: PBR binding, [^3H]-PK11195
[1] = molecular target: CBR (central diazepine receptor); assay: CBR binding, [^3H]-Flumazenil
[2] = Biodistribution of [^18F]-radioactivity in healthy male NMRI mice after intravenous injection (gamma counter); format: in vivo; details: for [^18F]-radioactivity in adrenals / [^18F]-radioactivity in blood / [^18F]-radioactivity in bone / [^18F]-radioactivity in brain (brain uptake) / [^18F]-radioactivity in fat / [^18F]-radioactivity in heart / [^18F]-radioactivity in intestine / [^18F]-radioactivity in kidney / [^18F]-radioactivity in liver / [^18F]-radioactivity in lung / [^18F]-radioactivity in muscle / [^18F]-radioactivity in pancreas / [^18F]-radioactivity in skin / [^18F]-radioactivity in spleen / [^18F]-radioactivity in stomach / [^18F]-radioactivity in testes / [^18F]-radioactivity in thyroid: normal mice, i.v., decay corrected
Procedure: (§1) The biodistribution of [^18F]-2d and [^18F]-5d was investigated in healthy male NMRI mice (28.3-35.6 g body weight, n=3 animals per time point) at 2, 5, 30, 60 and 180/240 min after intravenous injection of 0.264 MBq [^18F]-2d and 0.268 MBq [^18F]-5d per animal, respectively. Until the indicated time points urine and faeces were quantitatively collected. At the respective time points the mice were sacrificed and the tissues were removed. [^18F]-radioactivity was analyzed in a gamma counter (Tab. 1.1, 2.1 and 1.2, 2.2).

[3] = Excretion of [^18F]-radioactivity via urine and faeces in normal mice (gamma counter); format: in vivo; details: i.v., decay corrected
Procedure: as §1

[4] = molecular target: T1, peripheral benzodiazepine receptor (PBR) (Rattus norvegicus, UniProt P16257); assay: Ex vivo autoradiography of brain sections, rat kainic acid induced epilepsy model; format: in vivo
T1 construct: from tissue; host or cells: rat brain (hippocampus, cerebellum) after i.v. tracer injection
Procedure: Using a rat kainic acid induced epilepsy model and respective sham controls the accumulation of [^18F]-2d and [^18F]-5d was visualized ex vivo. In brief, epilepsy was induced in rats by injecting kainic acid i.p. At day eight after the start of the kainic acid treatment [^18F]-2d and [^18F]-5d were injected into the tail vein of the rats and their sham treated controls (PBS instead of kainic acid) at a dose of 25.8-35.8 MBq (approximately 1.0 μg) per rat. Thirty minutes after intravenous injection the rats were sacrificed, the brains were taken out, snap frozen and sliced transversally in a cryostat. The slices were exposed to PhosphoImager plates over night. The resulting autoradiographic signals were analyzed qualitatively and quantitatively (FIG. 2.1 A and C, 2.2 A and C). […] To determine the specificity of the [^18F]-2d and [^18F]-5d binding, kainic acid treated rats were co-injected with [^19F]-2e and [^19F]-5e, respectively.
The autoradiographic signals were quantified. The signal intensity in a hippocampal region of interest (ROI) was measured and compared to a ROI in the cerebellum, that was used as reference region.

PBR, sequence (P30536 whole entry, species assumed): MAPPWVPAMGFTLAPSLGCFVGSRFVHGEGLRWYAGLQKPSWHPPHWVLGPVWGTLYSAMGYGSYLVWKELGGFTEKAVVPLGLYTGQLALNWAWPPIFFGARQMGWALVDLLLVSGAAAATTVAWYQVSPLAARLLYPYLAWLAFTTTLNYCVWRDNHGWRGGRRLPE

Structure (SMILES): COc1ccc(Oc2ncccc2N(Cc2cc(OC)ccc2OCCF)C(C)=O)cc1 [[^19F]-2e, N-[2-(2-fluoroethoxy)-5-methoxybenzyl]-N-[2-(4-methoxyphenoxy)pyridin-3-yl]acetamide]
- Ki (PBR): 3.6 ± 1.3 nM
- Ki [1]: > 20000 nM

Structure (SMILES): COc1ccc(Oc2ncccc2N(Cc2cc(OC)ccc2OCC[18F])C(C)=O)cc1 [[^18F]-2d, N-[2-(2-[^18F]fluoroethoxy)-5-methoxybenzyl]-N-[2-(4-methoxyphenoxy)pyridin-3-yl]acetamide]
- Initial elimination of the radioactivity from the brain ([2]; mice, 30 min p.i.): ca. 72%
- Elimination from mouse brain, 2 min/30 min ratio of brain uptake (% ID/g) ([2]; mice, brain, 2 min to 30 min): 3.7
- [^18F]-radioactivity in adrenals ([2]; 2 min): 7.37 ± 2.53 % injected dose/g
- [^18F]-radioactivity in blood ([2]; 2 min): 2.35 ± 0.15 % injected dose/g
- [^18F]-radioactivity in bone ([2]; 2 min): 0.87 ± 0.11 % injected dose/g
- [^18F]-radioactivity in brain (brain uptake) ([2]; 2 min): 1.37±0.04 % injected dose/g
- [^18F]-radioactivity in fat ([2]; 2 min): 0.41 ± 0.49 % injected dose/g
- [^18F]-radioactivity in heart ([2]; 2 min): 16.53 ± 0.48 % injected dose/g
- [^18F]-radioactivity in intestine ([2]; 2 min): 0.82 ± 0.04 % injected dose/g
- [^18F]-radioactivity in kidney ([2]; 2 min): 5.92 ± 1.40 % injected dose/g
- [^18F]-radioactivity in liver ([2]; 2 min): 1.20 ± 0.28 % injected dose/g
- [^18F]-radioactivity in lung ([2]; 2 min): 61.50 ± 10.42 % injected dose/g
- [^18F]-radioactivity in muscle ([2]; 2 min): 1.23 ± 0.47 % injected dose/g
- [^18F]-radioactivity in pancreas ([2]; 2 min): 1.91 ± 0.33 % injected dose/g
- [^18F]-radioactivity in skin ([2]; 2 min): 0.51 ± 0.14 % injected dose/g
- [^18F]-radioactivity in spleen ([2]; 2 min): 1.50 ± 0.20 % injected dose/g
- [^18F]-radioactivity in stomach ([2]; 2 min): 2.15 ± 1.25 % injected dose/g
- [^18F]-radioactivity in testes ([2]; 2 min): 0.48 ± 0.10 % injected dose/g
- [^18F]-radioactivity in thyroid ([2]; 2 min): 2.15 ± 1.49 % injected dose/g
- [^18F]-radioactivity in adrenals ([2]; 5 min): 10.39 ± 3.44 % injected dose/g
- [^18F]-radioactivity in blood ([2]; 5 min): 1.44 ± 0.07 % injected dose/g
- [^18F]-radioactivity in bone ([2]; 5 min): 1.30 ± 0.02 % injected dose/g
- [^18F]-radioactivity in brain (brain uptake) ([2]; 5 min): 0.95 ± 0.07 % injected dose/g
- [^18F]-radioactivity in fat ([2]; 5 min): 0.25 ± 0.06 % injected dose/g
- [^18F]-radioactivity in heart ([2]; 5 min): 17.09 ± 0.64 % injected dose/g
- [^18F]-radioactivity in intestine ([2]; 5 min): 1.36 ± 0.33 % injected dose/g
- [^18F]-radioactivity in kidney ([2]; 5 min): 7.45 ± 1.00 % injected dose/g
- [^18F]-radioactivity in liver ([2]; 5 min): 1.41 ± 0.26 % injected dose/g
- [^18F]-radioactivity in lung ([2]; 5 min): 34.75 ± 6.56 % injected dose/g
- [^18F]-radioactivity in muscle ([2]; 5 min): 1.58 ± 0.52 % injected dose/g
- [^18F]-radioactivity in pancreas ([2]; 5 min): 2.23 ± 0.60 % injected dose/g
- [^18F]-radioactivity in skin ([2]; 5 min): 0.60 ± 0.11 % injected dose/g
- [^18F]-radioactivity in spleen ([2]; 5 min): 4.78 ± 0.73 % injected dose/g
- [^18F]-radioactivity in stomach ([2]; 5 min): 1.89 ± 1.77 % injected dose/g
- [^18F]-radioactivity in testes ([2]; 5 min): 0.50 ± 0.15 % injected dose/g
- [^18F]-radioactivity in thyroid ([2]; 5 min): 2.65 ± 0.58 % injected dose/g
- [^18F]-radioactivity in adrenals ([2]; 30 min): 15.51 ± 0.48 % injected dose/g
- [^18F]-radioactivity in blood ([2]; 30 min): 0.70 ± 0.14 % injected dose/g
- [^18F]-radioactivity in bone ([2]; 30 min): 1.67 ± 0.32 % injected dose/g
- [^18F]-radioactivity in brain (brain uptake) ([2]; 30 min): 0.37±0.04 % injected dose/g
- [^18F]-radioactivity in fat ([2]; 30 min): 0.46 ± 0.10 % injected dose/g
- [^18F]-radioactivity in heart ([2]; 30 min): 7.94 ± 1.52 % injected dose/g
- [^18F]-radioactivity in intestine ([2]; 30 min): 2.15 ± 0.62 % injected dose/g
- [^18F]-radioactivity in kidney ([2]; 30 min): 10.99 ± 1.08 % injected dose/g
- [^18F]-radioactivity in liver ([2]; 30 min): 1.61 ± 0.43 % injected dose/g
- [^18F]-radioactivity in lung ([2]; 30 min): 10.66 ± 0.71 % injected dose/g
- [^18F]-radioactivity in muscle ([2]; 30 min): 1.80 ± 0.17 % injected dose/g
- [^18F]-radioactivity in pancreas ([2]; 30 min): 2.85 ± 0.03 % injected dose/g
- [^18F]-radioactivity in skin ([2]; 30 min): 0.98 ± 0.06 % injected dose/g
- [^18F]-radioactivity in spleen ([2]; 30 min): 6.98 ± 0.82 % injected dose/g
- [^18F]-radioactivity in stomach ([2]; 30 min): 3.49 ± 0.45 % injected dose/g
- [^18F]-radioactivity in testes ([2]; 30 min): 0.79 ± 0.11 % injected dose/g
- [^18F]-radioactivity in thyroid ([2]; 30 min): 3.95 ± 0.81 % injected dose/g
- [^18F]-radioactivity in adrenals ([2]; 60 min): 23.01 ± 8.20 % injected dose/g
- [^18F]-radioactivity in blood ([2]; 60 min): 0.60 ± 0.09 % injected dose/g
- [^18F]-radioactivity in bone ([2]; 60 min): 1.75 ± 0.09 % injected dose/g
- [^18F]-radioactivity in brain (brain uptake) ([2]; 60 min): 0.34 ± 0.02 % injected dose/g
- [^18F]-radioactivity in fat ([2]; 60 min): 0.49 ± 0.06 % injected dose/g
- [^18F]-radioactivity in heart ([2]; 60 min): 5.22 ± 0.61 % injected dose/g
- [^18F]-radioactivity in intestine ([2]; 60 min): 2.33 ± 0.34 % injected dose/g
- [^18F]-radioactivity in kidney ([2]; 60 min): 11.04 ± 0.48 % injected dose/g
- [^18F]-radioactivity in liver ([2]; 60 min): 1.56 ± 0.22 % injected dose/g
- [^18F]-radioactivity in lung ([2]; 60 min): 6.31 ± 0.34 % injected dose/g
- [^18F]-radioactivity in muscle ([2]; 60 min): 2.34 ± 0.23 % injected dose/g
- [^18F]-radioactivity in pancreas ([2]; 60 min): 2.56 ± 0.26 % injected dose/g
- [^18F]-radioactivity in skin ([2]; 60 min): 1.14 ± 0.06 % injected dose/g
- [^18F]-radioactivity in spleen ([2]; 60 min): 6.09 ± 0.50 % injected dose/g
- [^18F]-radioactivity in stomach ([2]; 60 min): 4.37 ± 0.51 % injected dose/g
- [^18F]-radioactivity in testes ([2]; 60 min): 0.84 ± 0.09 % injected dose/g
- [^18F]-radioactivity in thyroid ([2]; 60 min): 3.88 ± 0.10 % injected dose/g
- [^18F]-radioactivity in adrenals ([2]; 180 min): 13.74 ± 7.36 % injected dose/g
- [^18F]-radioactivity in blood ([2]; 180 min): 0.66 ± 0.09 % injected dose/g
- [^18F]-radioactivity in bone ([2]; 180 min): 2.3 % injected dose/g and 2.25 ± 0.20 % injected dose/g
- [^18F]-radioactivity in brain (brain uptake) ([2]; 180 min): 0.35 ± 0.02 % injected dose/g
- [^18F]-radioactivity in fat ([2]; 180 min): 2.02 ± 1.06 % injected dose/g
- [^18F]-radioactivity in heart ([2]; 180 min): 2.78 ± 0.18 % injected dose/g
- [^18F]-radioactivity in intestine ([2]; 180 min): 4.28 ± 0.94 % injected dose/g
- [^18F]-radioactivity in kidney ([2]; 180 min): 10.63 ± 1.41 % injected dose/g
- [^18F]-radioactivity in liver ([2]; 180 min): 1.29 ± 0.20 % injected dose/g
- [^18F]-radioactivity in lung ([2]; 180 min): 4.57 ± 1.44 % injected dose/g
- [^18F]-radioactivity in muscle ([2]; 180 min): 1.84 ± 0.29 % injected dose/g
- [^18F]-radioactivity in pancreas ([2]; 180 min): 1.76 ± 0.40 % injected dose/g
- [^18F]-radioactivity in skin ([2]; 180 min): 1.60 ± 0.19 % injected dose/g
- [^18F]-radioactivity in spleen ([2]; 180 min): 4.07 ± 0.51 % injected dose/g
- [^18F]-radioactivity in stomach ([2]; 180 min): 4.37 ± 0.68 % injected dose/g
- [^18F]-radioactivity in testes ([2]; 180 min): 1.14 ± 0.11 % injected dose/g
- [^18F]-radioactivity in thyroid ([2]; 180 min): 3.91 ± 0.75 % injected dose/g
- Excretion of [^18F]-radioactivity via faeces ([3]; 2 min): 0.00 ± 0.00 % injected dose
- Excretion of [^18F]-radioactivity via urine ([3]; 2 min): 0.02 ± 0.01 % injected dose
- Excretion of [^18F]-radioactivity via faeces ([3]; 5 min): 0.02 ± 0.03 % injected dose
- Excretion of [^18F]-radioactivity via urine ([3]; 5 min): 0.02 ± 0.01 % injected dose
- Excretion of [^18F]-radioactivity via faeces ([3]; 30 min): 0.01 ± 0.00 % injected dose
- Excretion of [^18F]-radioactivity via urine ([3]; 30 min): 1.72 ± 0.08 % injected dose
- Excretion of [^18F]-radioactivity via faeces ([3]; 60 min): 0.03 ± 0.03 % injected dose
- Excretion of [^18F]-radioactivity via urine ([3]; 60 min): 4.21 ± 0.39 % injected dose
- Excretion of [^18F]-radioactivity via faeces ([3]; 180 min): 0.59±0.61 % injected dose
- Excretion of [^18F]-radioactivity via urine ([3]; 180 min): 13.09±1.33 % injected dose
- Specificity of binding: autoradiographic signal on co-injection of the corresponding [^19F] compound ([4]; kainic acid treated rats, co-injected with [^19F]-2e and [^19F]-5e, respectively): significantly reduced autoradiographic signal
- Hipp/Cereb ratio (signal-to-background ratio, hippocampus/cerebellum) ([4]; rat kainic acid model, 30 min ex vivo autoradiography): 5.6 ± 1.8

Structure (SMILES): CCN(CC)C(=O)Cc1c(-c2ccc(OCCF)cc2)nn2c(C)cc(C)nc12 [[^19F]-DPA-714, reference compound]
- Ki (PBR): 1.46 ± 0.12 nM
- Ki [1]: > 20000 nM

Structure (SMILES): COc1ccc(OCCF)c(CN(C(C)=O)c2cc(F)ccc2Oc2ccccc2)c1 [[^19F]-FEDAA1106, reference compound]
- Ki (PBR): 1.5 ± 0.15 nM
- Ki [1]: > 20000 nM
